Data from patent US20250326742A1, “THERAPEUTIC COMPOUNDS” (RUTGERS, THE STATE UNIVERSITY OF NEW JERSEY, priority 2024, published 2025).

Columns and labels:
SARS-CoV-2 PLpro = SARS-CoV-2 PLpro (Severe acute respiratory syndrome coronavirus 2, UniProt P0DTD1); assay: biochemical; details: 200 nM PLpro, 10 μM FRET substrate, 30 min preincubation at 30° C.
Protocol: FRET-Based PL^pro Enzymatic Assay
The SARS-CoV-2 PL^pro enzymatic assays were carried out as follows: The assay was assembled in 96-well plates with 100 μl of 200 nM PL^Pro protein in PL^Pro reaction buffer [50 mM Hepes (pH 7.5), 0.01% Triton X-100, and 5 mM DTT]. Then, 1 μl of testing compound at various concentrations was added to each well and incubated at 30° C. for 30 minutes. The enzymatic reaction was initiated by adding 1 μl of 1 mM FRET substrate (the final substrate concentration is 10 μM). The reaction was monitored in a Cytation 5 image reader with filters for excitation at 360/40 nm and emission at 460/40 nm at 30° C. for 1 hour. The initial velocity of the enzymatic reaction with and without testing compounds was calculated by linear regression for the first 15 minutes of the kinetic progress curve. The ICso values were calculated by plotting the initial velocity against various concentrations of testing compounds with a dose-response function in Prism 8 software.

[1] = Cytotoxicity assay in Vero E6 cells (neutral red uptake); type: cell-based; details: African green monkey, 2 days at 37° C.
Protocol: Cytotoxicity Assay in Vero E6 Cells
Briefly, 80,000 cells/ml of the tested cell lines were dispensed into 96-well cell culture plates at 100 μl per well. Twenty-four hours later, the growth medium was removed and washed with 150 μl of PBS buffer. Two hundred microliters of fresh serum-free medium containing serial diluted compounds was added to each well. After incubating for 2 days at 37° C., the medium was removed and replaced with 100 μl of DMEM medium containing neutral red (40 μg/ml) and incubated for 2 to 4 hours at 37° C. The amount of neutral red taken up was determined by measuring the absorbance at 540 nm using a Multiskan FC Microplate Photometer (Thermo Fisher Scientific). The CC50 values were calculated from best-fit dose-response curves with variable slope in Prism 8.

Row | Structure (SMILES) | IC50 (SARS-CoV-2 PLpro) | CC50 at 2 days [1]
1 | C#CCNC(=O)CCc1ccccc1C(=O)N[C@H](C)c1cc(-c2cnn(C)c2)cc(-c2ccn(CC)n2)c1 [Example 2, (R)-N-(1-(3-(1-Ethyl-1H-pyrazol-3-yl)-5-(1-methyl-1H-pyrazol-4-yl)phenyl)ethyl)-2-(3-oxo-3-(prop-2-yn-1-ylamino)propyl)benzamide] | 1 to 5 µM | 256 µM
2 | CCn1ccc(-c2cc(-c3cnn(C)c3)cc([C@@H](C)NC(=O)c3ccccc3CCC(=O)NNC(=O)C(Cl)Cl)c2)n1 [Example 3, (R)-2-(3-(2-(2,2-Dichloroacetyl)hydrazineyl)-3-oxopropyl)-N-(1-(3-(1-ethyl-1H-pyrazol-3-yl)-5-(1-methyl-1H-pyrazol-4-yl)phenyl)ethyl)benzamide] | 1 to 5 µM | > 500 µM
3 | C=CC(=O)NNC(=O)CCc1ccccc1C(=O)N[C@H](C)c1cc(-c2cnn(C)c2)cc(-c2ccn(CC)n2)c1 [Example 4, (R)-2-(3-(2-Acryloylhydrazineyl)-3-oxopropyl)-N-(1-(3-(1-ethyl-1H-pyrazol-3-yl)-5-(1-methyl-1H-pyrazol-4-yl)phenyl)ethyl)benzamide] | 1 to 5 µM | > 500 µM
4 | CCn1ccc(-c2cc(-c3cnn(C)c3)cc([C@@H](C)NC(=O)c3ccccc3CCC(=O)NNC(=O)/C=C/CN(C)C)c2)n1 [Example 5, (R,E)-2-(3-(2-(4-(Dimethylamino)but-2-enoyl)hydrazineyl)-3-oxopropyl)-N-(1-(3-(1-ethyl-1H-pyrazol-3-yl)-5-(1-methyl-1H-pyrazol-4-yl)phenyl)ethyl)benzamide] | > 5 µM | > 500 µM
5 | C=CS(=O)(=O)NNC(=O)CCc1ccccc1C(=O)N[C@H](C)c1cc(-c2cnn(C)c2)cc(-c2ccn(CC)n2)c1 [Example 6, (R)-N-(1-(3-(1-Ethyl-1H-pyrazol-3-yl)-5-(1-methyl-1H-pyrazol-4-yl)phenyl)ethyl)-2-(3-oxo-3-(2-(vinylsulfonyl)hydrazineyl)propyl)benzamide] | < 1 µM | 31 µM
6 | CCn1ccc(-c2cc(-c3cnn(C)c3)cc([C@@H](C)NC(=O)c3ccccc3CCC(=O)NNC(=O)/C=C/C(=O)OC(C)(C)C)c2)n1 [Example 7, tert-Butyl (R,E)-4-(2-(3-(2-((1-(3-(1-ethyl-1H-pyrazol-3-yl)-5-(1-methyl-1H-pyrazol-4-yl)phenyl)ethyl)carbamoyl)phenyl)propanoyl)hydrazineyl)-4-oxobut-2-enoate] | < 1 µM | 
7 | CCn1ccc(-c2cc(-c3cnn(C)c3)cc([C@@H](C)NC(=O)c3ccccc3CCC(=O)NNC(=O)/C=C/C(=O)N3CC(C)(C)C3)c2)n1 [Example 8, (R,E)-2-(3-(2-(4-(3,3-Dimethylazetidin-1-yl)-4-oxobut-2-enoyl)hydrazineyl)-3-oxopropyl)-N-(1-(3-(1-ethyl-1H-pyrazol-3-yl)-5-(1-methyl-1H-pyrazol-4-yl)phenyl)ethyl)benzamide] |  | > 250 µM
8 | CCOC(=O)/C=C/C(=O)NNC(=O)CCc1ccccc1C(=O)N[C@H](C)c1cc(-c2cnn(C)c2)cc(-c2ccn(CC)n2)c1 [Example 9, Ethyl (R,E)-4-(2-(3-(2-((1-(3-(1-ethyl-1H-pyrazol-3-yl)-5-(1-methyl-1H-pyrazol-4-yl)phenyl)ethyl)carbamoyl)phenyl)propanoyl)hydrazineyl)-4-oxobut-2-enoate] | < 1 µM | 
9 | CCn1ccc(-c2cc(-c3cnn(C)c3)cc([C@@H](C)NC(=O)c3ccccc3CCC(=O)NNS(=O)(=O)CCl)c2)n1 [Example 10, (R)-2-(3-(2-((Chloromethyl)sulfonyl)hydrazineyl)-3-oxopropyl)-N-(1-(3-(1-ethyl-1H-pyrazol-3-yl)-5-(1-methyl-1H-pyrazol-4-yl)phenyl)ethyl)benzamide] | > 5 µM | > 250 µM
10 | CCn1ccc(-c2cc(-c3cnn(C)c3)cc([C@@H](C)NC(=O)c3ccccc3CCC(=O)NNS(=O)(=O)C(Cl)Cl)c2)n1 [Example 11, (R)-2-(3-(2-((dichloromethyl)sulfonyl)hydrazineyl)-3-oxopropyl)-N-(1-(3-(1-Ethyl-1H-pyrazol-3-yl)-5-(1-methyl-1H-pyrazol-4-yl)phenyl)ethyl)benzamide] | > 5 µM | > 250 µM
11 | CCn1ccc(-c2cc(-c3cnn(C)c3)cc([C@@H](C)NC(=O)c3ccccc3CCC(=O)NNC(=O)/C=C/C(=O)N(C)C)c2)n1 [Example 12, (R,E)-2-(3-(2-(4-(Dimethylamino)-4-oxobut-2-enoyl)hydrazineyl)-3-oxopropyl)-N-(1-(3-(1-ethyl-1H-pyrazol-3-yl)-5-(1-methyl-1H-pyrazol-4-yl)phenyl)ethyl)benzamide] | < 1 µM | > 500 µM
12 | CCn1ccc(-c2cc(-c3cnn(C)c3)cc([C@@H](C)NC(=O)c3ccccc3CCC(=O)NNC(=O)/C=C/C(=O)NC3CC3)c2)n1 [Example 13, (R,E)-2-(3-(2-(4-(Cyclopropylamino)-4-oxobut-2-enoyl)hydrazineyl)-3-oxopropyl)-N-(1-(3-(1-ethyl-1H-pyrazol-3-yl)-5-(1-methyl-1H-pyrazol-4-yl)phenyl)ethyl)benzamide] | < 1 µM | > 250 µM
13 | CCn1ccc(-c2cc(-c3cnn(C)c3)cc([C@@H](C)NC(=O)c3ccccc3CCC(=O)NNC(=O)/C=C/C(=O)NC3CC(F)(F)C3)c2)n1 [Example 14, (R,E)-2-(3-(2-(4-((3,3-Difluorocyclobutyl)amino)-4-oxobut-2-enoyl)hydrazineyl)-3-oxopropyl)-N-(1-(3-(1-ethyl-1H-pyrazol-3-yl)-5-(1-methyl-1H-pyrazol-4-yl)phenyl)ethyl)benzamide] | < 1 µM | > 250 µM
14 | CCn1ccc(-c2cc(-c3cnn(C)c3)cc([C@@H](C)NC(=O)c3ccccc3CCC(=O)NNC(=O)CCl)c2)n1 [Example 15, (R)-2-(3-(2-(2-Chloroacetyl)hydrazineyl)-3-oxopropyl)-N-(1-(3-(1-ethyl-1H-pyrazol-3-yl)-5-(1-methyl-1H-pyrazol-4-yl)phenyl)ethyl)benzamide] | < 1 µM | > 250 µM
15 | C=C(F)C(=O)NNC(=O)CCc1ccccc1C(=O)N[C@H](C)c1cc(-c2cnn(C)c2)cc(-c2ccn(CC)n2)c1 [Example 16, (R)-N-(1-(3-(1-Ethyl-1H-pyrazol-3-yl)-5-(1-methyl-1H-pyrazol-4-yl)phenyl)ethyl)-2-(3-(2-(2-fluoroacryloyl)hydrazineyl)-3-oxopropyl)benzamide] | > 5 µM | > 250 µM
16 | C=C(Cl)C(=O)NNC(=O)CCc1ccccc1C(=O)N[C@H](C)c1cc(-c2cnn(C)c2)cc(-c2ccn(CC)n2)c1 [Example 17, (R)-2-(3-(2-(2-Chloroacryloyl)hydrazineyl)-3-oxopropyl)-N-(1-(3-(1-ethyl-1H-pyrazol-3-yl)-5-(1-methyl-1H-pyrazol-4-yl)phenyl)ethyl)] | 1 to 5 µM | 33 µM
17 | CCn1ccc(-c2cc(-c3cnn(C)c3)cc([C@@H](C)NC(=O)c3ccccc3CCC(=O)NNC(=O)/C=C/C(=O)N3CC(C(F)(F)F)C3)c2)n1 [Example 18, (R,E)-N-(1-(3-(1-Ethyl-1H-pyrazol-3-yl)-5-(1-methyl-1H-pyrazol-4-yl)phenyl)ethyl)-2-(3-oxo-3-(2-(4-oxo-4-(3-(trifluoromethyl)azetidin-1-yl)but-2-enoyl)hydrazineyl)propyl)benzamide] | < 1 µM | 
18 | CCn1ccc(-c2cc(-c3cnn(C)c3)cc([C@@H](C)NC(=O)c3ccccc3CCC(=O)NNC(=O)/C=C/C(=O)NC34CC(C3)C4)c2)n1 [Example 20, (R,E)-2-(3-(2-(4-(Bicyclo[1.1.1]pentan-1-ylamino)-4-oxobut-2-enoyl)hydrazineyl)-3-oxopropyl)-N-(1-(3-(1-ethyl-1H-pyrazol-3-yl)-5-(1-methyl-1 H-pyrazol-4-yl)phenyl)ethyl)benzamide] | < 1 µM | > 250 µM
19 | CCn1ccc(-c2cc(-c3cnn(C)c3)cc([C@@H](C)NC(=O)c3ccccc3CCC(=O)NNC(=O)/C=C/C(=O)N3CC(F)C3)c2)n1 [Example 21, (R,E)-N-(1-(3-(1-ethyl-1H-pyrazol-3-yl)-5-(1-methyl-1H-pyrazol-4-yl)phenyl)ethyl)-2-(3-(2-(4-(3-fluoroazetidin-1-yl)-4-oxobut-2-enoyl)hydrazineyl)-3-oxopropyl)benzamide] | < 1 µM | > 500 µM
20 | CCn1ccc(-c2cc(-c3cnn(C)c3)cc([C@@H](C)NC(=O)c3ccccc3CCC(=O)NNC(=O)/C=C/C(=O)N3CCC3)c2)n1 [Example 22, (R,E)-2-(3-(2-(4-(azetidin-1-yl)-4-oxobut-2-enoyl) hydrazineyl)-3-oxopropyl)-N-(1-(3-(1-ethyl-1H-pyrazol-3-yl)-5-(1-methyl-1H-pyrazol-4-yl)phenyl)ethyl)benzamide] | < 1 µM | > 250 µM
